Results taken from patent publication US20100113602A1, “USE OF HISTONE DEACETYLASE INHIBITORS FOR THE TREATMENT OF CENTRAL NERVOUS SYSTEM METASTASES” (The United States of America,as represented by the …, priority 2007, published 2010).
≈ marks a conversion by molar mass, not a printed value.

Experiments:
Type in all cases: cell-based, human
231-BR cells [1] = test: 48-well Boyden chamber chemotaxis (motility) assay; conditions: 24 hours drug treatment, 4 hours migration, SAHA 5 μM, depsipeptide 10 ng/mL, VPA 10 mM, TSA 100 ng/mL, ± standard deviation; for Motility Data, mean number of cells that migrate per well, 0.5% FCS: 0.5% FCS chemoattractant; for Motility Data, mean number of cells that migrate per well, Control: Control (no FCS chemoattractant)
Protocol: 231-BR Cells are used as described in Example 2. A 48-well Boyden chemotaxis chamber is used. Polycarbonate PVP-free Nucleopore filters (8 μm pore size) are coated with 0.01% collagen (BD Bioscience). […] Drug concentrations used are as described in Example 2. 231-BR cells, after 24 hours of vorinostat, other drug treatment, or control are added to the top chamber in DMEM with 1 mg/ml BSA at a concentration of 2×10^6 cells/ml. Chambers are incubated for 4 hours in a 37° C. incubator with 5% CO2. After chambers are disassembled, filters are fixed and stained with reagents from a Diff-Quik® Kit (Fischer Scientific). Cells that migrate through the Boyden chamber are counted using a light microscope. Representative areas are counted to determine the number of cells that have migrated for each well. Data in Table 5 are shown as mean number of cells±standard deviation that migrate per well. Analysis of variance (ANOVA) is used to assess in vitro functions of vehicle treated versus vorinostat treated cells. P values can be two-tailed. Tests can be performed using GraphPad InStat version 3.0 software.

231-BR cells [2] = test: MTT proliferation / colonization assay of 231-BR cells; conditions: for Colonization Data, % Control: 231-BR cells, 72-hour incubation, SAHA 5 μM, depsipeptide 10 ng/mL, VPA 10 mM, TSA 100 ng/mL, ± standard deviation
Protocol: The prepared cells are plated at a density of 15,000 cells/well in a 96 well plate and incubated for 3 hours to permit attachment. Cells are then washed with PBS, and media containing either 0.1% or 1% FBS is added to the cells. […] After a 72-hour incubation, 0.5 mg/mL MTT (Sigma, St. Louis, Mo.) is added and plates are incubated for 2 hours. Media is then aspirated, and MTT dissolved in DMSO for 30 minutes, after which the absorbance is read at a wavelength of 570 nm. […] Data in Table 4 is shown as percent of colonies formed±standard deviation compared to untreated controls. Results are representative of three independent experiments in quintuplicate. Analysis of variance (ANOVA) is used to assess in vitro functions of vehicle treated versus vorinostat treated cells. P values can be two-tailed. Tests can be performed using GraphPad InStat version 3.0 software.

[3] = tested on: acetyl Histone H3, acetyl histone H4, p21; test: Western blot of 231-BR cell lysates after HDI treatment; conditions: 231-BR cells; depsipeptide 10 ng/mL or SAHA 5 μM; 0, 8, 24, 48 hours
Protocol: All cell lines are deemed free of mycoplasma and human pathogens and test negative in mouse antibody production (MAP) tests. […] Drug solution is added once at the beginning and left on the cells for the indicated duration (0, 8, 24, and 48 hours). Controls are performed in the same way with the same amount of vehicle solution for each drug, but without the drug. The vehicle can be DMSO. Cells are lysed according to standard procedures and Western blotting is performed. Primary antibodies specific to the targeted proteins are used including antibodies specific to acetyl Histone H3, acetyl histone H4, p21, and α-tubulin. Horseradish peroxidase-conjugated secondary antibodies purchased from Santa Cruz Biotechnology (Santa Cruz, Calif.) are used at dilutions of 1:5000. Proteins are visualized using enhanced chemilluminescence (Cell Signaling) and autoradiography. […] As histones H3 and H4 become hyperacetylated, protein levels of the cyclin-dependent kinase inhibitor p21 increase. Those changes indicate HDAC inhibition.

Compound	Motility Data, mean number of cells that migrate per well, 0.5% FCS (231-BR cells [1])	Motility Data, mean number of cells that migrate per well, Control (231-BR cells [1])	Colonization Data, % Control (231-BR cells [2]) [% Control]	dose at which noticeable inhibition occurs (231-BR cells [2]; 231BR cells) [µg/mL]	IC50 (231-BR cells [2]; Homo sapiens, read-out: IC50 (growth inhibition, absorbance at 570 nm)) [µg/mL]	acetylation of histones H3 and H4 (Western blot) [3]	protein levels of the cyclin-dependent kinase inhibitor p21 (Western blot) [3]
CC(/C=C/C(=O)NO)=C\[C@@H](C)C(=O)c1ccc(N(C)C)cc1 [Trichostatin (TSA), trichostatin]	785 ± 17	108 ± 13	30 ± 3.4	–	–	–	–
CCCC(CCC)C(=O)O [Valporic Acid, valproic acid]	755 ± 37	242 ± 55	46 ± 5.3	–	–	–	–
C/C=C1\NC(=O)[C@H]2CSSCC/C=C/[C@H](CC(=O)N[C@H](C(C)C)C(=O)N2)OC(=O)[C@H](C(C)C)NC1=O [Depsipeptide]	678 ± 33	129 ± 23	10 ± 2.5	≥ 0.001	1.5 (≈ 2.77 µM)	hyperacetylated	increase
